Series [1] relates to intraocular pressure (IOP). The series can be described thus: Intraocular pressure (IOP) recovery model in rabbits after hypertonic saline (20% NaCl) infusion. It is filed as in vivo, Albino rabbits. To be noted: for potency in lowering intraocular pressure compared with timolol: FIGS. 1-5; for potency in lowering intraocular pressure compared with pilocarpine and timolol: in vivo. As for the experimental part: Albino rabbits of either sex, weighing 2.25-2.5 kg were used for this intraocular pressure (IOP) recovery model experiment. Hypertonic saline (20% NaCl) was infused into the ear vein at a rate of 1 ml/min. for 10 minutes. The IOP was determined with Mackay-Marg electronic applanation tonometer (Berkeley Bio-Engineering, San Leandro, Calif.) at 0, 5, 10, 15, 20, 40, 60, 80, and every 30 minutes thereafter. The IOP decreased abruptly right after the infusion of hypertonic saline and recovered to normal in approximately 80-110 minutes. Identical experiments were repeated with the same group of animals one week later, wherein addition to the hypertonic saline infusion, haloperidol was instilled into the eyes in the form of 50 μl of an aqueous solution of 0.125 wt % haloperidol.
The procedure performed in Example 1 was carried out in the same manner, except that an aqueous solution of 0.25 wt % haloperidol was employed.
The procedure performed in Example 1 was carried out in the same manner, except that an aqueous solution of 0.25 wt % moperone was used.
The procedure performed in Example 1 was carried out in the same manner, except that an aqueous solution of 0.25 wt % trifluperidol was used.
The procedure performed in Example 1 was carried out in the same manner, except that an aqueous solution of 0.25 wt % L-timolol was used.
The procedure performed in Example 1 was carried out in the same manner, except that an aqueous solution of 0.25 wt % clofluperol was used.
The procedure performed in Example 1 was carried out in the same manner, except that an aqueous solution of 0.25 wt % floropipamide was used.
The procedure performed in Example 1 was carried out in the same manner, except that an aqueous solution of 0.25 wt % lenperone was used.
The procedure performed in Example 1 was carried out in the same manner with the following exceptions: (a) an Alcon electronic applanation tonometer (Alcon Laboratories, Inc., Ft. Worth, Tex.) was used to determine IOP; and (b) an aqueous solution of 0.25 wt % trifluoperazine was used.
The procedure performed in Example 10 was carried out in the same manner, except that an aqueous solution of 0.25 wt % chlorpromazine was used.
The procedure performed in Example 10 was carried out in the same manner, except that an aqueous solution of 0.5 wt % domperidone was used.

Series [2] has as its system aqueous humor formation and intraocular pressure. In words: Studies of ability to reduce aqueous humor formation and intraocular pressure in rabbits and cats. To be noted: rabbit, in vivo. The text has this:
The dopamine antagonists of the present invention have been studied with respect to their ability to reduce aqueous humor formation and intraocular pressure in rabbits and cats. The studies indicate that the compounds are effective in reducing aqueous humor formation and intraocular pressure subsequent to topical and intracameral application.

Series [3] has as its system aqueous humor (AH) dynamics. The series can be described thus: Cat eye model, aqueous humor (AH) dynamics (rates of AH formation and outflow, blue dextran). It is filed as in vivo, cats. The conditions noted are these: 50 μl of 0.5% eye drops. As for the experimental part: The cat eye model was used for the study of haloperidol actions in aqueous humor (AH) dynamics. Briefly, cats of either sex weighing 2.5-4.0 kg were anesthetized with 30 mg/kg of pentobarbital sodium. Systemic blood pressure was monitored through cannulation at the femoral artery and additional pentobarbital was injected via femoral vein. Three needles were put into each eye. The first one was placed in the anterior chamber for the monitoring of IOP. The second one was placed at the posterior chamber for the infusion of AH-like solution containing 0.01% of blue dextran (NaCl, 137; KCl, 4.7; CaCl2, 1.53; MgCl2, 0.67; Na2 HPO4, 0.11 and dextrose, 5.56 mM). The rate of the infusion was adjusted to 38 μl/min. The third one was placed in the anterior chamber to serve as an overflow outlet. The overflown solution passed through a microspectrophotometric cell (ISCO, UA-5, Lincoln, Nebr.) for the detection of changes of blue dextran concentration and through a drop counter (ISCO, Model 328) for the recording of overflow rate.
Haloperidol (50 μl of 0.5% eye drops) was instilled to the eyes when the blue dextran tracings were stabilized (in about 2 hrs. after the initiation of the infusion). The rates of AH formation (rf) and outflow (ro) were calculated as follows: […]

A short description of series [4]: Systemic absorption after topical instillation to the eye. Format: in vivo. The conditions noted are these: assuming not more than 10% of topically instilled drug absorbed systemically.
Another series concerns intraocular pressure. To be noted: cited from earlier work.
For series [5] the following is noted: background; cited from earlier work.
For series [6] the following is noted: background; cited from earlier work. This is another data set of the same source.
Setting [7] is: Oryctolagus cuniculus, topical, read-out: Difference in Max Reduction of IOP.
Where [8] appears, read: rabbit, 0.125% drug, Mackay-Marg tonometer, 50 μl eye instillation.
[9] abbreviates: rabbit, 0.25 wt % aqueous solution.
The mark [10] stands for this setting: rabbit, 0.25% drug, Alcon electronic applanation tonometer.
Where [11] appears, read: rabbit, 0.25 wt % aqueous solution, Alcon tonometer.
The mark [12] stands for this setting: rabbit, 0.25% drug, Mackay-Marg tonometer, 50 μl eye instillation.
Where [13] appears, read: rabbit, 0.25 wt % aqueous solution, Mackay-Marg tonometer.
The mark [14] stands for this setting: Oryctolagus cuniculus, topical, rabbit, 0.25% drug, Mackay-Marg tonometer, 100% control IOP 20.2 ± 1.3 mm Hg, 20% saline alone 65 ± 1, read-out: Difference in Max Reduction of IOP.

“Also recorded” adds a separate entry of the source. Where two headings read alike, the source gives them in different places.

Take `O=c1[nH]c2ccccc2n1CCCN1CCC(n2c(=O)[nH]c3cc(Cl)ccc32)CC1` [Domperidone]: in series [1] (setting [7]), the response vs control in vivo at 0.5 % amounted to 56 ± 4%. In addition, the “Time Delay for IOP Recovery Relative to Control” value in series [1] (rabbit, 0.5% drug, Alcon electronic applanation tonometer) is given as 210 min. Also, the “shift of the IOP recovery curve relative to the control curve” value in series [1] (rabbit, 0.5 wt % aqueous solution, Alcon tonometer) is recorded as “indicates the ocular hypotensive action”.
In the case of `O=C(CCCN1CCC(O)(c2ccc(Cl)c(C(F)(F)F)c2)CC1)c1ccc(F)cc1` [Clofluperol], the “reduction of aqueous humor formation and intraocular pressure” value (“reduction” below) in series [2] is recorded as “reduce significantly”. Moreover, the “potency in lowering intraocular pressure compared with timolol” value in series [1] was “at least equipotent to timolol”. In series [1] (setting [7]), the response vs control in vivo at 0.125 % was 59 ± 2%. Further, in series [1] (setting [8]), the “Time Delay for IOP Recovery Relative to Control” value is reported as 60 min. For the same compound, the “IOP recovery compared with L-timolol” value in series [1] (setting [9]) is on record as “generally equivalent to that of L-timolol”.
Consider `CN1CCN(CCCN2c3ccccc3Sc3ccc(C(F)(F)F)cc32)CC1` [Trifluoperazine], for which the response vs control in vivo at 0.25 % in series [1] (Oryctolagus cuniculus, topical, rabbit, 0.25% drug, Alcon tonometer, 100% control IOP 20.2 ± 1.3 mm Hg, 20% saline alone 65 ± 1, read-out: Difference in Max Reduction of IOP) was 49 ± 4%. In addition, in series [1] (setting [10]), the “Time Delay for IOP Recovery Relative to Control” value is given as 150 min. For the same compound, the “shift of the IOP recovery curve relative to the control curve” value in series [1] (setting [11]) is on record as “indicates the ocular hypotensive action”.
For the compound `O=C(CCCN1CCC(O)(c2ccc(Cl)cc2)CC1)c1ccc(F)cc1` [Haloperidol, 4-[4-(p-chlorophenyl)-4-hydroxypiperidino]-4'-fluorobutyrophenone], the AH formation entry in series [3] (following the initial outflow increase) was “decrease in aqueous humor formation; also recorded: decrease in AH formation”. Moreover, the AH outflow entry in series [3] (initial effect) is “initial increase in aqueous humor outflow; also recorded: initially caused an increase in AH outflow”. The “anti-psychotic dosage level potentially absorbed as a result of glaucoma therapy” value in series [4] is recorded as 0.2% to 0.65. The “reduction” value in series [2] is listed as “reduce significantly”. Besides, in series [1], the “potency in lowering intraocular pressure compared with timolol” value was “more potency than timolol”. Also, in series [1] (setting [7]), the response vs control in vivo at 0.125 % was 45 ± 2%. For the same compound, in series [1] (setting [7]), the response vs control in vivo at 0.25 % amounted to 46 ± 2%. Also, the results for the “Time Delay for IOP Recovery Relative to Control” value in series [1] (setting [8]) and in series [1] (setting [12]) were 180 min and 270 min, respectively. The “shift of the IOP recovery curve relative to the control curve” value is “indicates the ocular hypotensive action” in series [1] (rabbit, 0.125 wt % aqueous solution) and “indicates the ocular hypotensive action” in series [1] (setting [13]). In addition, the “potency in lowering intraocular pressure compared with pilocarpine and timolol” value in series [1] (rabbit) is “more potent than pilocarpine and timolol”.
With `CC[C@@H]1C(=O)OC[C@@H]1Cc1cncn1C` [pilocarpine], the “mechanism: effect on aqueous humor outflow and formation” value with intraocular pressure (comparison with haloperidol) is given as “increases aqueous humor outflow without affecting aqueous humor formation”.
Turning to `CC(C)(C)NC[C@@H](O)COc1nsnc1N1CCOCC1` [D-timolol], in the series on intraocular pressure (U.S. Pat. No. 4,521,414), the “intraocular pressure reducing response compared with S isomer” value is reported as “substantially equivalent to that of the S isomer”.
Consider `NC(=O)C1(N2CCCCC2)CCN(CCCC(=O)c2ccc(F)cc2)CC1` [Floropipamide], for which the “reduction” value in series [2] is “reduce significantly”. In series [1], the “potency in lowering intraocular pressure compared with timolol” value is on record as “at least equipotent to timolol”. The response vs control in vivo at 0.25 % in series [1] (setting [14]) is 60 ± 3%. For the same compound, in series [1] (setting [12]), the “Time Delay for IOP Recovery Relative to Control” value is 60 min. Further, the “IOP recovery compared with L-timolol” value in series [1] (setting [9]) is “generally equivalent to that of L-timolol”.
Consider `CN(C)CCCN1c2ccccc2Sc2ccc(Cl)cc21` [Chlorpromazine], for which the response vs control in vivo at 0.25 % in series [1] (setting [7]) was 52 ± 3%. In addition, the “Time Delay for IOP Recovery Relative to Control” value in series [1] (setting [10]) came out at 120 min. The “shift of the IOP recovery curve relative to the control curve” value in series [1] (setting [11]) is listed as “indicates the ocular hypotensive action”.
On to `CC(C)(C)NC[C@H](O)COc1nsnc1N1CCOCC1` [Timolol, 1-tert-butyl-amino-3-[(4-morpholino-1,2,5-thiadiazol-3-yl)oxy]-2-propanol], for which, in series [5], the “systemic absorption after topical administration to the eye” value was “a small portion is absorbed into the systemic circulation”. In addition, the response vs control in vivo at 0.25 % in series [1] (setting [14]) stood at 62 ± 4%. Moreover, the “Time Delay for IOP Recovery Relative to Control” value in series [1] (setting [12]) was 60 min. Moreover, in series [6], the local anesthetic action entry is reported as “lack of local anesthetic action” and the tolerance entry is recorded as “minimal tolerance”.
As for `Cc1ccc(C2(O)CCN(CCCC(=O)c3ccc(F)cc3)CC2)cc1` [Moperone], the “reduction” value in series [2] is listed as “reduce significantly”. In series [1], the “potency in lowering intraocular pressure compared with timolol” value was “more potency than timolol”. In series [1] (setting [14]), the response vs control in vivo at 0.25 % came to 55 ± 1%. Also, the “Time Delay for IOP Recovery Relative to Control” value in series [1] (setting [12]) amounted to 180 min. For the same compound, in series [1] (setting [13]), the “shift of the IOP recovery curve relative to the control curve” value is “indicates the ocular hypotensive action”. For the same compound, in series [1] (rabbit), the “potency in lowering intraocular pressure compared with pilocarpine and timolol” value is “more potent than pilocarpine and timolol”.
For `O=C(CCCN1CCC(C(=O)c2ccc(F)cc2)CC1)c1ccc(F)cc1` [Lenperone], in series [2], the “reduction” value was “reduce significantly”. In addition, the “potency in lowering intraocular pressure compared with timolol” value in series [1] is given as “at least equipotent to timolol”. Also, the response vs control in vivo at 0.25 % in series [1] (setting [14]) is 61 ± 2%. Also, in series [1] (setting [12]), the “Time Delay for IOP Recovery Relative to Control” value was 60 min. Moreover, the “IOP recovery compared with L-timolol” value in series [1] (setting [9]) is given as “generally equivalent to that of L-timolol”.
